Data: patent US11834516B2, “Tumor-specific polypeptide and use thereof” (GENOIMMUNE THERAPEUTICS CO., LTD., priority 2016, dated 2023)

Key:
[1] = test system: H2087-KLMGIVYKV subcutaneous tumor; test: Lentivirus (nucleic acid) transfected DC vaccine in H2087-[…] subcutaneous tumor model; type: in vivo, NOD/SCID mice; settings: lentivirus-infected DC, intradermal, 2 weekly injections
Excerpt: Using automated DNA synthesizer, nucleotide sequences were synthesized by ligating nucleotides one by one based on a known sequence utilizing solid phase phosphite amide method. […] The lentiviral plasmids pHBLV-Puro containing the wild type polypeptide or the mutated polypeptides were separately constructed and named as pHBLV-Puro-[…], pHBLV-Puro-[…], pHBLV-Puro-[…], pHBLV-Puro-[…], pHBLV-Puro-[…], respectively. Thereafter, the five lentiviral plasmids were co-transfected into T293 cells with the pSPAX2 and pMD2G helper plasmids, respectively, and were packaged into lentiviruses containing the wild type polypeptide or the mutated polypeptides.
The established human lung (non-small cell) adenocarcinoma cell line H2087-[…] cells were cultured in DMEM medium supplemented with 10% fetal calf serum, 100 U/mL penicillin and streptomycin in an incubator at 37° C., 5% CO2. […] After appropriate dilution, 40 μl of the cell suspension was stained with 10 μl of 0.4% Trypan Blue and microscopically counted to prepare a tumor cell suspension at a concentration of 1×10^8 cells/ml. […] Using the vernier caliper, the tumor long diameter a and the short diameter b were measured every 2-3 days, and the tumor size was calculated as follows: tumor size=a*b*b/2. […]

[2] = test system: CD8+ T cells; test: Cell expansion of CD8+ T cells stimulated by polypeptide-loaded DCs in vitro; type: cell-based, human; settings: day 10 of co-culture of CD8+ T cells with polypeptide-loaded DCs; 2.5 × 10^6 cells before culture
Method: Dendritic cells (DCs) derived from monocytes were used as antigen presenting cells (APCs) to induce CTL responses against peptides presented on HLA. 2×10^8 peripheral blood mononuclear cells (PBMC) were isolated from 100 ml of peripheral blood of healthy volunteers with positive HLA-A0201 subtype using Ficoll lymphocyte separation solution (Cat. No. 17-1440-02, GE Healthcare). Mononuclear cells were obtained by adherent culture (3 hours), and CD8+ T cells in PBMC cells were screened with CD8 magnetic beads. GM-CSF (1000 U/ml) and IL-4 (1000 U/ml) were used to induce adherent monocytes into immature DCs, then IFN-γ (100 U/ml), LPS (10 ng/ml), and the polypeptides of the present invention as set forth in SEQ ID NOs: 2-5 were used to induce adherent cells into mature DC cells. The mature DC cells loaded with the polypeptides were irradiated (dose of 25 Gy) and co-cultured with CD8+ T cells of the volunteers (DC density was 5×10^5 cells/ml, CD8+ T cell density was 2×10^6 cells/ml, both of DCs and CD8+ T cells were mixed in equal volume and added to the well plate, i.e., co-cultured) with IL-21 added, then IL-2 and IL-7 were replenished after 3 days, and then IL-2 and IL-7 were replenished once on day 5 and 7, respectively. Co-cultured cells (co-cultured CD8+ T cells were activated to polypeptide-specific CD8+ T cells) were counted on day 10.

[3] = test system: T2 cells; test: LDH release assay, specific killing activity of CD8+ T cells; type: cell-based, human; set-up: concentration or dose not given beside the values; settings: T cells activated by the labelled polypeptide, 4 hours
Method: The following experiment was carried out according to the instructions of Pierce™ LDH Cytotoxicity Assay Kit (Thermo, Cat. No. 88953). The co-cultured cells in Example 4 were co-cultured with T2 cells loaded with mutated polypeptides or wild-type polypeptide or T2 cells without any loaded polypeptides. In the experiment, the maximum release well, the volume correction well, the medium control well, the spontaneous release well, the control of different ratios of effective cells to target cells (the ratio of the number of T cells to the T2 cell) and the like were set, and three duplicate wells were set in each group, and after 4 hours, 50 ul of the supernatant of the co-cultured cells was collected and added to 50 ul of LDH substrate mixture to catalyze the reaction of LDH substrate. After 30 minutes, 50 ul of reaction stop solution was added and read the 490 nm wavelength and the reference wavelength of 680 nm, and the killing activity of target cells against T2 cells were calculated based on the control wells.
The formula for calculating the killing activity is: Killing efficiency (%)=(test well−spontaneous release of effector cell−spontaneous release of target cell+medium well)/(maximum release of target cell−volume correction well−spontaneous release of target cell+medium well)×100%

[4] = test system: CD8+ T cells; test: IFN-γ ELISPOTs, activation of CD8+ T cell immune response; type: cell-based, human; settings: for Number of spots in the mutated polypeptide group / Number of spots in the wild type polypeptide group: CD8+ T cells primed with DCs loaded with the polypeptide, 20 hours; for Number of spots in the mutated polypeptide group: T2 cells loaded with mutated polypeptide; for Number of spots in the wild type polypeptide group: T2 cells loaded with wild type polypeptide KLMGIVNKV; for Conclusion (immunogenicity): IFN-γ ELISPOTs; for Folds (test/wild type): ratio of spot numbers, >2 = immunogenic
Excerpt: The principle of ELISPOTs detection method is that CD8+ T cells can specifically recognize the complex of HLA-A0201 and a polypeptide, and with different polypeptide sequence, the T cell population recognizing the complex of HLA-A0201 and the polypeptide is also different. As T2 cells express HLA-A0201, CD8+ T cells can specifically recognize T2 cells loaded with mutated polypeptides, but cannot recognize T2 cells loaded with wild-type polypeptide. After specifically recognizing the complex of HLA-A0201 and the polypeptide, the polypeptide-specific CD8+ T cells are able to reactivate and secrete IFN-γ. The IFN-γ secreted by activation of CD8+ T cells is captured by a biotin-labeled secondary antibody. It is then bound to alkaline phosphatase or peroxide horseradish oxidase-labeled streptavidin. Spots are formed by the color development of the substrate. The number of spots represents the number of cells that are activated to secrete IFN-γ.
The cells co-cultured in Example 4 and T2 cells loaded with the mutated polypeptides or the wild-type polypeptide were added into human IFN-γ ELISPOTs plates for culture and detection. The spots formed by the ELISPOT test were finally counted. The requirement for the test polypeptide to be immunogenic is as follows: the number of spots (test polypeptide)/the number of spots (wild type polypeptide)>2, that is, the number of spots formed by the test polypeptide is more than twice the number of spots formed by the wild type polypeptide.
The cells co-cultured in Example 4 and T2 cells loaded with the mutated polypeptide […] (SEQ ID NO: 2) and its variable formats (SEQ ID NOs: 2-5) and the wild type polypeptide […] (SEQ ID NO: 6) were added into human IFN-γ ELISPOTs plates for culture, and subjected to ELISPOTs test (Mabtech, Cat. No. 3420-4APW-2) 20 hours later.

[5] = target: T1, HLA-A0201 (Homo sapiens, UniProt P04439, D140Y/D185E/D98H/E176V/E277Q/G131W/G231S/I119V/I121R/I166T/I218V/L300P/L318F/N151K/N90K/P208A/P217A/Q86G/Q94H/R138H/R169H/T345S); test: T2 affinity verification of the polypeptides for HLA-A0201 by flow cytometry; type: binding; settings: T2 affinity test
T1 construct: T2 cell expresses HLA-A0201; host or cells: T2 cells
Method: 2 duplicate wells per group were used. […] The cells were collected by centrifugation at 200 g for 5 minutes. After the collected cells were washed twice with PBS (Cat. No. 10010-031, GIBCO), the cells were directly incubated with anti-HLA-A 0201 FITC monoclonal antibody and incubated at 4 C for 30 minutes. The mean fluorescence intensity (MFI) was then detected and analyzed by flow cytometry (BD FACSJazz™) and its software, as shown in FIG. 1.
The fluorescence index (FI) is calculated using the following formula: FI=[Mean Fluorescence Intensity (MFI)sample−MFIbackground]/MFIbackground, wherein the MFIbackground represents the value without the polypeptide.

[6] = target T2 loaded with KLMGIVYKV (SEQ ID NO: 2)
[7] = target T2 loaded with wild type KLMGIVNKV (SEQ ID NO: 6)

Row | Sequence | tumor suppressing effect [1] | Total number of cells in the well after culture [2] | Killing efficiency, ratio of effective cells to target cells (1:1) [3, 6] | Killing efficiency, ratio of effective cells to target cells (10:1) [3, 6] | Killing efficiency, ratio of effective cells to target cells (1:1) [3, 7] | Killing efficiency, ratio of effective cells to target cells (10:1) [3, 7] | Number of spots in the mutated polypeptide group [4] | Number of spots in the wild type polypeptide group [4] | Conclusion (immunogenicity) [4] | Folds (test/wild type) [4] | affinity for HLA-A0201 [5]
1 | KLMGIVNKV [wild-type peptide fragment, amino acids 130-138 of the unmutated Twist neighbor protein] | no effect on the tumor | – | – | – | – | – | – | – | – | – | –
2 | KLMGIVYKL | – | 1.63 × 10^7 | 8.76% | 44.52% | 2.17% | 4.63% | 335 | 40 | immunogenic | 8.34 | enhanced affinity for HLA-A0201
3 | KLMGIVYKV [9-amino-acid mutated TWIST Neighbor protein peptide (N136Y)] | – | 1.32 × 10^7 | 7.69% | 38.29% | 2.33% | 5.03% | 316 | 31 | immunogenic | 10.01 | does have a high affinity for HLA-A0201
4 | KMMGIVYKL | – | 1.46 × 10^7 | 8.29% | 42.26% | 3.25% | 6.23% | 328 | 29 | immunogenic | 11.31 | enhanced affinity for HLA-A0201
5 | KMMGIVYKV | – | 1.37 × 10^7 | – | – | – | – | 323 | 37 | immunogenic | 8.73 | enhanced affinity for HLA-A0201
